PMC9090415, “Discovery of small molecule inhibitors of Plasmodium falciparum apicoplast DNA polymerase” (Journal of Enzyme Inhibition and Medicinal Chemistry, 2022)

Molecular target: P. falciparum apicoplast DNA polymerase (Pf-apPOL) (Plasmodium falciparum, UniProt Q8ILY1)
Test: Fluorescence-based high-throughput DNA polymerase assay (molecular beacon), primary screen and dose-response
Type: biochemical
Conditions: for DNA Pol: 90 min, 10 µM; for IC50: supplemental file 2, sheet IC50 nontoxic compounds, Pf-apPOL
Method: The HT assay employs a molecular beacon, a stem-loop DNA template with a Cy3 dye and the Black Hole Quencher on the 3′ and 5′ ends of the DNA, respectively. Pf-apPOL concentration is based on a calculated absorptivity of ε280 = 56750 M^−1 cm^−1. Reactions were carried out at 25 °C, using Corning 3575 […] (well-volume, 20 µL). Assays testing for compound inhibition composed of reaction buffer (pH 7.9 in 50 mM potassium acetate, 20 mM Tris-acetate and 10 mM magnesium acetate), Pf-apPOL (20 nM), DNA substrate (20 nM), dNTPs (6 µM), and compound (10 µM in DMSO). The DNA and nucleotide substrates (dNTPs) were at concentrations of 20 nM and 6 µM, respectively, in the assay. Pf-apPOL was incubated in the reaction buffer with dNTPs and the compound of interest (10 µM, in the assay) at 25 °C for 10 min. The DNA substrate was then added and the reaction was allowed to proceed for 90 min at 25 °C.
Each assay plate contained 16 negative controls (no Pf-apPOL, DMSO present) and 16 positive controls (Pf-apPOL present, no DMSO). The fluorescence of each well was determined using a BioTek Synergy Neo fluorescence plate reader using excitation and emission wavelengths of 555 and 570 nm, respectively.
In the above, Min is the average of fluorescence emission of the negative controls (substrate only), Max the average fluorescence emission from the positive controls (enzyme + substrate), and Test the emission from the assays in the presence of compounds (enzyme + compound + substrates). […] […] The IC50 of each compound was determined using Equation (2): (2) IC50= Vmax/(1+ (I/IC50)^n)
In the above, n measures cooperativity, with n > 1 indicating synergistic binding of more than a single molecule of the compound.
To identify apPOL inhibitors we utilised our previously developed high-throughput DNA polymerase assay. The HT assay is based on a molecular beacon DNA template that forms a stem-loop with a Cy3 dye and the Black Hole Quencher on the 3′ and 5′ ends of the DNA, respectively. DNA polymerase activity extends an annealed primer through the stem region, displacing the fluorophore from the quencher, thereby increasing its fluorescence (Figure 1(A)). The assay accurately recapitulates the kinetic behaviour of apPOL, as measured through more conventional low-throughput gel-based assays. The Z′ factor for the assay described here was 0.9 across all plates (data not shown).
Figure 1. High-throughput screening. (A) The fluorescent-based DNA polymerase assay used to screen the compound libraries. The DNA template strand is a hairpin loop with a primer annealed to the loop. The 3’ end of the primer is 11 bases away from the 6 bp duplex. Strand displacement activity of the DNA polymerase separates the Cy3 dye from the Black hole quencher leading to an increase in fluorescent signal. (B) The high-throughput assay workflow. The DNA polymerase is incubated with […] compound for 10 min prior to addition of the hairpin substrate. The reaction is quenched at 3 different time points and the fluorescent signal is measured and % inhibition is determined using the provided equation.

P. falciparum apicoplast DNA polymerase (Pf-apPOL), sequence (Q8ILY1 entry or part of it): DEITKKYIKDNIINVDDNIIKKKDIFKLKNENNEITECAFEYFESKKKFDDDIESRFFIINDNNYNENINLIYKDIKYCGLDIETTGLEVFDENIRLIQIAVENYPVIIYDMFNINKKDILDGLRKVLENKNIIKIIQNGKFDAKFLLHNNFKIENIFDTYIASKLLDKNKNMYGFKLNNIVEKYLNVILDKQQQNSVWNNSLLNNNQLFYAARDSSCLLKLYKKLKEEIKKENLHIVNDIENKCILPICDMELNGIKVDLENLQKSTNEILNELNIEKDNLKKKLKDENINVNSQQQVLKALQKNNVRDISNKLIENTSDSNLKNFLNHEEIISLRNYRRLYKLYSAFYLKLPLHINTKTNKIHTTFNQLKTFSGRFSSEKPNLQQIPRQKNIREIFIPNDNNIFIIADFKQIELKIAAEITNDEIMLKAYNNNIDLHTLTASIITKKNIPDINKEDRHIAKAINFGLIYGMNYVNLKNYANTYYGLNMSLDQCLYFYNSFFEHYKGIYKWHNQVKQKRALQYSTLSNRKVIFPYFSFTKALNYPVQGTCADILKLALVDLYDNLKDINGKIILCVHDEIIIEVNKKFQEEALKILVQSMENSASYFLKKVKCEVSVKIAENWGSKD

COc1ccc(C=C2Oc3c(ccc4c3CN(c3ccc5c(c3)OCO5)CO4)C2=O)cc1OC [KU0199426]
% inhibition Apo pol 10' (DRC-1, concentration 2.5): 6.7092%
% inhibition Apo pol 10' (DRC-1, concentration 5): 10.8011%
% inhibition Apo pol 10' (DRC-1, concentration 10): 30.1784%
% inhibition Apo pol 10' (DRC-1, concentration 20): 49.962%
% inhibition Apo pol 10' (DRC-1, concentration 40): 63.2111%
% inhibition Apo pol 10' (DRC-1, concentration 80): 69.0086%
% inhibition Apol 90' (DRC-1, concentration 2.5): 9.888%
% inhibition Apol 90' (DRC-1, concentration 5): 17.5134%
% inhibition Apol 90' (DRC-1, concentration 10): 37.0525%
% inhibition Apol 90' (DRC-1, concentration 20): 55.1818%
% inhibition Apol 90' (DRC-1, concentration 40): 69.2799%
% inhibition Apol 90' (DRC-1, concentration 80): 72.5355%
% inhibition apPOL 180' (DRC-1, concentration 2.5): 14.753%
% inhibition apPOL 180' (DRC-1, concentration 5): 23.9693%
% inhibition apPOL 180' (DRC-1, concentration 10): 43.333%
% inhibition apPOL 180' (DRC-1, concentration 20): 61.4424%
% inhibition apPOL 180' (DRC-1, concentration 40): 79.6981%
% inhibition apPOL 180' (DRC-1, concentration 80): 86.1468%
% inhibition Apo pol 5' (DRC-2, concentration 2.5): 6.46%
% inhibition Apo pol 5' (DRC-2, concentration 5): 7.39%
% inhibition Apo pol 5' (DRC-2, concentration 10): 27%
% inhibition Apo pol 5' (DRC-2, concentration 20): 45%
% inhibition Apo pol 5' (DRC-2, concentration 40): 42%
% inhibition Apo pol 5' (DRC-2, concentration 80): 45%
% inhibition Apol 40' (DRC-2, concentration 2.5): 6%
% inhibition Apol 40' (DRC-2, concentration 5): -2.71%
% inhibition Apol 40' (DRC-2, concentration 10): 30%
% inhibition Apol 40' (DRC-2, concentration 20): 63%
% inhibition Apol 40' (DRC-2, concentration 40): 43%
% inhibition Apol 40' (DRC-2, concentration 80): 44%
% inhibition ApPOL 90' (DRC-2, concentration 2.5): 4.67%
% inhibition ApPOL 90' (DRC-2, concentration 5): -12%
% inhibition ApPOL 90' (DRC-2, concentration 10): 27%
% inhibition ApPOL 90' (DRC-2, concentration 20): 69%
% inhibition ApPOL 90' (DRC-2, concentration 40): 41%
% inhibition ApPOL 90' (DRC-2, concentration 80): 43%
% inhibition apPOL 180' (DRC-2, concentration 2.5): -0.788%
% inhibition apPOL 180' (DRC-2, concentration 5): -86%
% inhibition apPOL 180' (DRC-2, concentration 10): 16%
% inhibition apPOL 180' (DRC-2, concentration 20): 76%
% inhibition apPOL 180' (DRC-2, concentration 40): 34%
% inhibition apPOL 180' (DRC-2, concentration 80): 39%
% inhibition Apo pol 5' (conc. 10, DRC-2): 27%
% inhibition ApPOL 90' (conc. 10, DRC-2): 27%
% inhibition Apo pol 5' (conc. 20, DRC-2): 45%
% inhibition Apol 40' (conc. 40, DRC-2): 43%
% inhibition Apo pol 5' (conc. 80, DRC-2): 45%
% inhibition ApPOL 90' (conc. 80, DRC-2): 43%
DNA Pol (primary screen value by plate and well): 28
DNA Pol (primary screen value of the 186 hits, unit not given): 28

CC(C)CCNC(=O)c1cnn2c(O)cc(CSc3ccc(Cl)cc3)nc12 [Molecule 101]
IC50: 9.74 µM

O=C(Cc1cc(=O)[nH]c(SCc2ccccc2)n1)Nc1ccc2c(c1)OCO2 [Molecule 46]
IC50: 15.5 µM

O=C(O)c1ccc(COc2cc([N+](=O)[O-])cc3cccnc23)cc1 [KU0058403]
DNA Pol ('DNA Pol' of the 186 hits list (screen value)): 59
% inhibition Apo pol 10' (DRC-1, conc 2.5): 14.3649%
% inhibition Apo pol 10' (DRC-1, conc 5): 27.7405%
% inhibition Apo pol 10' (DRC-1, conc 10): 42.2641%
% inhibition Apo pol 10' (DRC-1, conc 20): 75.4082%
% inhibition Apo pol 10' (DRC-1, conc 40): 92.5507%
% inhibition Apo pol 10' (DRC-1, conc 80): 97.3906%
% inhibition Apol 90' (DRC-1, conc 2.5): 7.929%
% inhibition Apol 90' (DRC-1, conc 5): 14.8475%
% inhibition Apol 90' (DRC-1, conc 10): 27.7051%
% inhibition Apol 90' (DRC-1, conc 20): 56.1594%
% inhibition Apol 90' (DRC-1, conc 40): 83.537%
% inhibition Apol 90' (DRC-1, conc 80): 95.378%
% inhibition apPOL 180' (DRC-1, conc 2.5): 6.111%
% inhibition apPOL 180' (DRC-1, conc 5): 9.076%
% inhibition apPOL 180' (DRC-1, conc 10): 18.5156%
% inhibition apPOL 180' (DRC-1, conc 20): 39.8383%
% inhibition apPOL 180' (DRC-1, conc 40): 74.9259%
% inhibition apPOL 180' (DRC-1, conc 80): 94.2886%
% inhibition Apo pol 5' (DRC-2, conc 2.5): 17%
% inhibition Apo pol 5' (DRC-2, conc 5): 21%
% inhibition Apo pol 5' (DRC-2, conc 10): 31%
% inhibition Apo pol 5' (DRC-2, conc 20): 43%
% inhibition Apo pol 5' (DRC-2, conc 40): 55%
% inhibition Apo pol 5' (DRC-2, conc 80): 60%
% inhibition Apol 40' (DRC-2, conc 2.5): 10%
% inhibition Apol 40' (DRC-2, conc 5): 14%
% inhibition Apol 40' (DRC-2, conc 10): 23%
% inhibition Apol 40' (DRC-2, conc 20): 39%
% inhibition Apol 40' (DRC-2, conc 40): 59%
% inhibition Apol 40' (DRC-2, conc 80): 74%
% inhibition ApPOL 90' (DRC-2, conc 2.5): 7%
% inhibition ApPOL 90' (DRC-2, conc 5): 12%
% inhibition ApPOL 90' (DRC-2, conc 10): 19%
% inhibition ApPOL 90' (DRC-2, conc 20): 35%
% inhibition ApPOL 90' (DRC-2, conc 40): 57%
% inhibition ApPOL 90' (DRC-2, conc 80): 76%
% inhibition ApPOL 90' (DRC-2, concentration 80): 76%
% inhibition apPOL 180' (DRC-2, conc 2.5): 1.43%
% inhibition apPOL 180' (DRC-2, conc 5): 2.25%
% inhibition apPOL 180' (DRC-2, conc 10): 8.43%
% inhibition apPOL 180' (DRC-2, conc 20): 22%
% inhibition apPOL 180' (DRC-2, conc 40): 48%
% inhibition apPOL 180' (DRC-2, conc 80): 76%
% inhibition apPOL 180' (DRC-2, concentration 80): 76%
DNA Pol (primary screen value, "DNA Pol"): 59

O=C1CSC2=NC3=C(CCc4ccccc43)C(c3cccs3)N12 (stereo not shown) [Molecule 59]
IC50: 14.7 µM

CN(C)C=CC(=O)c1ccccn1 [Molecule 64]
IC50: 18.5 µM
